How the values were obtained:
barley = test: Test C preemergence/postemergence greenhouse plant response rating 0 to 100; type: in vivo, Hordeum vulgare; conditions: POSTEMERGENCE
Outline: (§1)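 Compounds in non-phytotoxic solvent applied preemergence to sandy loam one day after planting, postemergence at the 1–4 leaf stage, or to ~2.5 cm floodwater over silt loam.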

barnyardgrass = test: Test B preemergence/postemergence greenhouse plant response rating 0 to 10; type: in vivo, Echinochloa crus-galli; conditions: 0 to 10 scale
Outline: (§2)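 Planted seeds are treated preemergence with compound dissolved in a non-phytotoxic solvent, while postemergence applications go onto plants of two to eighteen cm. Plants stay in the greenhouse twelve to sixteen days and are then rated visually relative to controls.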

broadleaf signalgrass = test: Test G preemergence/postemergence greenhouse plant response rating 0 to 100; type: in vivo, Brachiaria plantaginea; conditions: 0 to 100 scale
Outline: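 Pre- and postemergence treatments used compound in non-phytotoxic solvent on potted greenhouse plants grown from seed, rhizome or plant part. Postemergence plants were at the 2–4 leaf stage; damage was assessed by eye versus untreated pots after 13–21 days.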

crabgrass = test: Test B preemergence/postemergence greenhouse plant response rating 0 to 10; type: in vivo, Digitaria spp.; conditions: 0 to 10 scale
Outline: as §2

cheatgrass = test: as above; type: in vivo, Bromus secalinus; conditions: 0 to 10 scale
Outline: as §2

velvetleaf = test: as above; type: in vivo, Abutilon theophrasti; conditions: 0 to 10 scale
Outline: as §2

rape = test: as above; type: in vivo, Brassica napus; conditions: 0 to 10 scale
Outline: as §2

lambsquarters = test: Test C preemergence/postemergence greenhouse plant response rating 0 to 100; type: in vivo, Chenopodium album; conditions: POSTEMERGENCE
Outline: as §1

morningglory [1] = test: as above; type: in vivo, Ipomoea hederacea; conditions: POSTEMERGENCE
Outline: as §1

chickweed = test: Test B preemergence/postemergence greenhouse plant response rating 0 to 10; type: in vivo, Stellaria media; conditions: POSTEMERGENCE, 0 to 10 scale
Outline: as §2

morningglory [2] = test: as above; type: in vivo, Ipomoea hederacea; conditions: 0 to 10 scale
Outline: as §2

soybean = test: Test C preemergence/postemergence greenhouse plant response rating 0 to 100; type: in vivo, Glycine max; conditions: POSTEMERGENCE
Outline: as §1

giant foxtail = test: Test B preemergence/postemergence greenhouse plant response rating 0 to 10; type: in vivo, Setaria faberii; conditions: 0 to 10 scale
Outline: as §2

corn = test: as above; type: in vivo, Zea mays; conditions: 0 to 10 scale
Outline: as §2

## C#CCN1C(=O)COc2cc(F)c(-c3nn4c(c3Cl)CCCC4)cc21 [Compound 34]
barley; 62 g/ha, 0 to 100 scale
  Plant response rating Barley Igri: 40
barley; Rate 1 g/ha
  Plant response rating (0 to 100), Barley Igri: 20
barley; Rate 4 g/ha
  Plant response rating (0 to 100), Barley Igri: 30
barley; Rate 16 g/ha
  Plant response rating (0 to 100), Barley Igri: 40
barnyardgrass; POSTEMERGENCE, Rate 10 g/ha
  Plant response rating, Barnyardgrass: 4
barnyardgrass; POSTEMERGENCE, Rate 50 g/ha
  Plant response rating, Barnyardgrass: 5
barnyardgrass; PREEMERGENCE, Rate 10 g/ha
  Plant response rating, Barnyardgrass: 3
barnyardgrass; PREEMERGENCE, Rate 50 g/ha
  Plant response rating, Barnyardgrass: 4
Broadleaf signalgrass; POSTEMERGENCE, Rate 125 g/ha
  Plant response rating, Brdlf Sgnlgrass: 0
Broadleaf signalgrass; POSTEMERGENCE, Rate 250 g/ha
  Plant response rating, Brdlf Sgnlgrass: 0
Broadleaf signalgrass; PREEMERGENCE, Rate 125 g/ha
  Plant response rating, Brdlf Sgnlgrass: 0
Broadleaf signalgrass; PREEMERGENCE, Rate 250 g/ha
  Plant response rating, Brdlf Sgnlgrass: 0
crabgrass; POSTEMERGENCE, Rate 10 g/ha
  Plant response rating, Crabgrass: 3
crabgrass; POSTEMERGENCE, Rate 50 g/ha
  Plant response rating, Crabgrass: 4
crabgrass; PREEMERGENCE, Rate 10 g/ha
  Plant response rating, Crabgrass: 3
crabgrass; PREEMERGENCE, Rate 50 g/ha
  Plant response rating, Crabgrass: 9
cheatgrass; POSTEMERGENCE, Rate 10 g/ha
  Plant response rating, Cheatgrass: 4
cheatgrass; POSTEMERGENCE, Rate 50 g/ha
  Plant response rating, Cheatgrass: 5
cheatgrass; PREEMERGENCE, Rate 10 g/ha
  Plant response rating, Cheatgrass: 3
cheatgrass; PREEMERGENCE, Rate 50 g/ha
  Plant response rating, Cheatgrass: 6
velvetleaf; POSTEMERGENCE, Rate 10 g/ha
  Plant response rating, Velvetleaf: 10
velvetleaf; POSTEMERGENCE, Rate 50 g/ha
  Plant response rating, Velvetleaf: 1
velvetleaf; PREEMERGENCE, Rate 50 g/ha
  Plant response rating, Velvetleaf: 10
rape; POSTEMERGENCE, Rate 10 g/ha
  Plant response rating, Rape: 10
rape; POSTEMERGENCE, Rate 50 g/ha
  Plant response rating, Rape: 10
rape; PREEMERGENCE, Rate 50 g/ha
  Plant response rating, Rape: 6
lambsquarters; 62 g/ha, 0 to 100 scale
  Plant response rating Lambsquarters: 100
lambsquarters; Rate 1 g/ha
  Plant response rating (0 to 100), Lambsquarters: 80
lambsquarters; Rate 4 g/ha
  Plant response rating (0 to 100), Lambsquarters: 100
lambsquarters; Rate 16 g/ha
  Plant response rating (0 to 100), Lambsquarters: 100
Morningglory [1]; 62 g/ha, 0 to 100 scale
  Plant response rating, Morningglory: 100
Morningglory [1]; Rate 1 g/ha
  Plant response rating (0 to 100), Morningglory: 60
Morningglory [1]; Rate 4 g/ha
  Plant response rating (0 to 100), Morningglory: 100
Morningglory [1]; Rate 16 g/ha
  Plant response rating (0 to 100), Morningglory: 100
chickweed; Rate 10 g/ha
  Plant response rating, Chickweed: 10
chickweed; Rate 50 g/ha
  Plant response rating, Chickweed: 10
Morningglory [2]; POSTEMERGENCE, Rate 10 g/ha
  Plant response rating, Morningglory: 9
Morningglory [2]; POSTEMERGENCE, Rate 50 g/ha
  Plant response rating, Morningglory: 1
Morningglory [2]; PREEMERGENCE, Rate 50 g/ha
  Plant response rating, Morningglory: 2
soybean; 62 g/ha, 0 to 100 scale
  Plant response rating, Soybean: 100
soybean; Rate 1 g/ha
  Plant response rating (0 to 100), Soybean: 50
soybean; Rate 4 g/ha
  Plant response rating (0 to 100), Soybean: 70
soybean; Rate 16 g/ha
  Plant response rating (0 to 100), Soybean: 100
Giant foxtail; POSTEMERGENCE, Rate 10 g/ha
  Plant response rating, Giant foxtail: 4
Giant foxtail; POSTEMERGENCE, Rate 50 g/ha
  Plant response rating, Giant foxtail: 5
Giant foxtail; PREEMERGENCE, Rate 10 g/ha
  Plant response rating, Giant foxtail: 3
Giant foxtail; PREEMERGENCE, Rate 50 g/ha
  Plant response rating, Giant foxtail: 6
corn; POSTEMERGENCE, Rate 10 g/ha
  Plant response rating, Corn: 4
corn; POSTEMERGENCE, Rate 50 g/ha
  Plant response rating, Corn: 4
corn; PREEMERGENCE, Rate 50 g/ha
  Plant response rating, Corn: 0

— US6358885B1, “Substituted phenylheterocyclic herbicides” (Mississippi State University, priority 1992, dated 2002)
